Reference: US20230159489A1, “PHD INHIBITOR COMPOUNDS, COMPOSITIONS, AND USE” (Akebia Therapeutics, Inc., priority 2020, published 2023)
Where a name gives a salt, the structure may show the parent alone. Each block holds one compound with its values, some of them ahead of it.

Legend:
full-length human PHD1 = biological target: T1, full-length human PHD1 (Homo sapiens, UniProt Q96KS0); experiment: TR-FRET assay, enzymatic IC50 against PHD1; assay type: biochemical; further: 15 nM PHD1
T1 construct: FLAG (N); purchased Active Motif 81064; host or cells: baculovirus expression system
Source text: PHD1 was expressed in a baculovirus expression system as the full-length protein (NCBI accession number NP_542770.2) with an N-terminal FLAG tag (molecular weight 44.9 kDa).

full-length human PHD2 = full-length human PHD2 (Homo sapiens, UniProt Q9GZT9); experiment: TR-FRET assay, enzymatic IC50 against PHD2
Sequence of full-length human PHD2 (Q9GZT9 whole entry): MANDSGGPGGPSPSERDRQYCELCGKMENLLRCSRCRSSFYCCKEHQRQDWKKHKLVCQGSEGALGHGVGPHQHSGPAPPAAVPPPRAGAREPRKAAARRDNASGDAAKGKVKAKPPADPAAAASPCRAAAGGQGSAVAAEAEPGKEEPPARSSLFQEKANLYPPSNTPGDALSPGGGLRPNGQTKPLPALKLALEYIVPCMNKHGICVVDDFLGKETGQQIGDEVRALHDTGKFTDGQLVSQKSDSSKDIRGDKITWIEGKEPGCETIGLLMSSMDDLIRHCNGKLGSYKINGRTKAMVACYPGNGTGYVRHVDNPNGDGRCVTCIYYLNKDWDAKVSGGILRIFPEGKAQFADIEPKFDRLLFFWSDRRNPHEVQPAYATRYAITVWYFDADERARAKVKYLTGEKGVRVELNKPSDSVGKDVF

T1 sequence (Q96KS0 whole entry): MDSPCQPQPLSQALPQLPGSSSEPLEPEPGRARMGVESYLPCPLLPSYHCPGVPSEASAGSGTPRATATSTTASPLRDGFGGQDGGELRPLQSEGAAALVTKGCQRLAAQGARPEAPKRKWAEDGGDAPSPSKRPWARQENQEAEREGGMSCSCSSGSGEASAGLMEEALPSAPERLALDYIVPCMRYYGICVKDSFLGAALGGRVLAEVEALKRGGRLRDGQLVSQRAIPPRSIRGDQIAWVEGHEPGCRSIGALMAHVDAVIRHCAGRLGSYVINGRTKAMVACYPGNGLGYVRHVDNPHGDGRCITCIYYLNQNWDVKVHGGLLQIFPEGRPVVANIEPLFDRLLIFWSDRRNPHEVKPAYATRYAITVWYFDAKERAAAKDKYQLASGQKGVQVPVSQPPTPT

SMILES: CNS(=N)(=O)c1ccc(-n2nc(C)c(-c3ccc(C#N)cc3)c2O)nc1 (centres unmarked) [Compound 26, 6-(4-(4-cyanophenyl)-5-hydroxy-3-methyl-1H-pyrazol-1-yl)-N-methylpyridine-3-sulfonimidamide]
IC50 (full-length human PHD1): < 100 nM | IC50 (full-length human PHD2): < 100 nM

SMILES: Cc1nn(-c2ccc(C(=O)NS(C)(=O)=O)cn2)c(O)c1-c1ccc(Cl)cc1 [Compound 28, 6-(4-(4-chlorophenyl)-5-hydroxy-3-methyl-1H-pyrazol-1-yl)-N-(methylsulfonyl)nicotinamide]
IC50 (full-length human PHD1): < 100 nM | IC50 (full-length human PHD2): 100 to 1000 nM

SMILES: CC(=O)NS(=O)(=O)c1ccc(-n2nc(C)c(-c3ccc(C#N)cc3)c2O)nc1 [Compound 29, N-((6-(4-(4-cyanophenyl)-5-hydroxy-3-methyl-1H-pyrazol-1-yl)pyridin-3-yl)sulfonyl)acetamide]
IC50 (full-length human PHD1): < 100 nM | IC50 (full-length human PHD2): < 100 nM

SMILES: CC(=O)NS(=O)(=O)c1ccc(-n2nc(C)c(-c3ccc(Cl)cc3)c2O)nc1 [Compound 30, N-((6-(4-(4-chlorophenyl)-5-hydroxy-3-methyl-1H-pyrazol-1-yl)pyridin-3-yl)sulfonyl)acetamide]
IC50 (full-length human PHD1): < 100 nM | IC50 (full-length human PHD2): < 100 nM

SMILES: Cc1nn(-c2ccc(NC(=O)N3CCOCC3)cn2)c(O)c1-c1ccc(C#N)cc1 [Compound 31, N-(6-(4-(4-cyanophenyl)-5-hydroxy-3-methyl-1H-pyrazol-1-yl)pyridin-3-yl)morpholine-4-carboxamide]
IC50 (full-length human PHD1): < 100 nM | IC50 (full-length human PHD2): 100 to 1000 nM

SMILES: Cc1nn(-c2ccc(NC(=O)N3CCNCC3)cn2)c(O)c1-c1ccc(C#N)cc1 [Compound 32, N-(6-(4-(4-cyanophenyl)-5-hydroxy-3-methyl-1H-pyrazol-1-yl)pyridin-3-yl)piperazine-1-carboxamide hydrochloride]
IC50 (full-length human PHD1): 100 to 1000 nM | IC50 (full-length human PHD2): 100 to 1000 nM

SMILES: Cc1nn(-c2ccc(S(=N)(=O)C3CC3)cn2)c(O)c1-c1ccc(C#N)cc1 (centres unmarked) [Compound 33, 4-(1-(5-(cyclopropanesulfonimidoyl)pyridin-2-yl)-5-hydroxy-3-methyl-1H-pyrazol-4-yl)benzonitrile]
IC50 (full-length human PHD1): < 100 nM | IC50 (full-length human PHD2): < 100 nM

SMILES: Cc1cc(-n2nc(C)c(-c3ccc(C#N)cc3)c2O)ncc1N1CCCC1=O [Compound 37, 4-(5-hydroxy-3-methyl-1-(4-methyl-5-(2-oxopyrrolidin-1-yl)pyridin-2-yl)-1H-pyrazol-4-yl)benzonitrile]
IC50 (full-length human PHD1): < 100 nM | IC50 (full-length human PHD2): < 100 nM

SMILES: Cc1cc(-n2nc(C)c(-c3ccc(C#N)cc3)c2O)ncc1S(N)(=O)=O [Compound 38, 6-(4-(4-cyanophenyl)-5-hydroxy-3-methyl-1H-pyrazol-1-yl)-4-methylpyridine-3-sulfonamide]
IC50 (full-length human PHD1): < 100 nM | IC50 (full-length human PHD2): < 100 nM

SMILES: Cc1cc(-n2nc(C)c(-c3ccc(C#N)cc3)c2O)ncc1NS(C)(=O)=O [Compound 39, N-(6-(4-(4-cyanophenyl)-5-hydroxy-3-methyl-1H-pyrazol-1-yl)-4-methylpyridin-3-yl)methanesulfonamide]
IC50 (full-length human PHD1): < 100 nM | IC50 (full-length human PHD2): < 100 nM

SMILES: Cc1cc(-n2nc(C)c(-c3ccc(C#N)cc3)c2O)ncc1S(C)(=N)=O (centres unmarked) [Compound 40, 4-(5-hydroxy-3-methyl-1-(4-methyl-5-(S-methylsulfonimidoyl)pyridin-2-yl)-1H-pyrazol-4-yl)benzonitrile]
IC50 (full-length human PHD1): < 100 nM | IC50 (full-length human PHD2): < 100 nM

SMILES: Cc1nn(-c2ccc([S@@](=N)(=O)C(C)C)cn2)c(O)c1-c1ccc(C#N)cc1 [Compound 41, (S)-4-(5-hydroxy-3-methyl-1-(5-(S-isopropylsulfonimidoyl)pyridin-2-yl)-1H-pyrazol-4-yl)benzonitrile]
IC50 (full-length human PHD1): < 100 nM | IC50 (full-length human PHD2): < 100 nM

SMILES: Cc1nn(-c2ccc([S@](=N)(=O)C(C)C)cn2)c(O)c1-c1ccc(C#N)cc1 [Compound 42, (R)-4-(5-hydroxy-3-methyl-1-(5-(S-isopropylsulfonimidoyl)pyridin-2-yl)-1H-pyrazol-4-yl)benzonitrile]
IC50 (full-length human PHD1): < 100 nM | IC50 (full-length human PHD2): < 100 nM

SMILES: Cc1nn(-c2ccc(C3CN(S(C)(=O)=O)C3)cn2)c(O)c1-c1ccc(C#N)cc1 [Compound 43, 4-(5-hydroxy-3-methyl-1-(5-(1-(methylsulfonyl)azetidin-3-yl)pyridin-2-yl)-1H-pyrazol-4-yl)benzonitrile]
IC50 (full-length human PHD1): < 100 nM | IC50 (full-length human PHD2): < 100 nM

SMILES: Cc1nc(-n2nc(C)c(-c3ccc(C#N)cc3)c2O)ccc1S(C)(=O)=O [Compound 45, 4-(5-hydroxy-3-methyl-1-(6-methyl-5-(methylsulfonyl)pyridin-2-yl)-1H-pyrazol-4-yl)benzonitrile]
IC50 (full-length human PHD1): 1000 to 10000 nM | IC50 (full-length human PHD2): 1000 to 10000 nM

SMILES: Cc1cc(-n2nc(C)c(-c3ccc(C#N)cc3)c2O)ncc1S(C)(=O)=O [Compound 46, 4-(5-hydroxy-3-methyl-1-(4-methyl-5-(methylsulfonyl)pyridin-2-yl)-1H-pyrazol-4-yl)benzonitrile]
IC50 (full-length human PHD1): < 100 nM | IC50 (full-length human PHD2): < 100 nM

SMILES: Cc1nn(-c2ccc(CC(=O)O)cn2)c(O)c1-c1ccc(C#N)cc1 [Compound 47, 2-(6-(4-(4-cyanophenyl)-5-hydroxy-3-methyl-1H-pyrazol-1-yl)pyridin-3-yl)acetic acid]
IC50 (full-length human PHD1): < 100 nM | IC50 (full-length human PHD2): < 100 nM

SMILES: Cc1cc(-c2c(C)nn(-c3ccc(S(C)(=O)=O)cn3)c2O)ccc1O [Compound 48, 4-(4-hydroxy-3-methylphenyl)-3-methyl-1-(5-(methylsulfonyl)pyridin-2-yl)-1H-pyrazol-5-ol]
IC50 (full-length human PHD1): 100 to 1000 nM | IC50 (full-length human PHD2): 100 to 1000 nM

SMILES: COc1ccc(-c2c(C)nn(-c3ccc(S(C)(=O)=O)cn3)c2O)cc1C [Compound 49, 4-(4-methoxy-3-methylphenyl)-3-methyl-1-(5-(methylsulfonyl)pyridin-2-yl)-1H-pyrazol-5-ol]
IC50 (full-length human PHD1): 100 to 1000 nM | IC50 (full-length human PHD2): 100 to 1000 nM

SMILES: Cc1nn(-c2ccc(-c3nn[nH]n3)cn2)c(O)c1-c1ccc(C#N)cc1 [Compound 50, 4-(1-(5-(2H-tetrazol-5-yl)pyridin-2-yl)-5-hydroxy-3-methyl-1H-pyrazol-4-yl)benzonitrile]
IC50 (full-length human PHD1): < 100 nM | IC50 (full-length human PHD2): < 100 nM

Second part, the compound after the results:

IC50 (full-length human PHD1): < 100 nM | IC50 (full-length human PHD2): < 100 nM
SMILES: CNS(=O)(=O)Nc1ccc(-n2nc(C)c(-c3ccc(C#N)cc3)c2O)nc1 [Compound 51, N-(6-(4-(4-cyanophenyl)-5-hydroxy-3-methyl-1H-pyrazol-1-yl)pyridin-3-yl)-N′-methylsulfamide]

IC50 (full-length human PHD1): < 100 nM | IC50 (full-length human PHD2): < 100 nM
SMILES: Cc1nn(-c2ccc(NS(=O)(=O)N(C)C)cn2)c(O)c1-c1ccc(C#N)cc1 [Compound 52, N-(6-(4-(4-cyanophenyl)-5-hydroxy-3-methyl-1H-pyrazol-1-yl)pyridin-3-yl)-N′-dimethylsulfamide]

IC50 (full-length human PHD1): < 100 nM | IC50 (full-length human PHD2): < 100 nM
SMILES: Cc1nn(-c2cc(C3CC3)c(S(C)(=O)=O)cn2)c(O)c1-c1ccc(C#N)cc1 [Compound 53, 4-(1-(4-cyclopropyl-5-(methylsulfonyl)pyridin-2-yl)-5-hydroxy-3-methyl-1H-pyrazol-4-yl)benzonitrile]

IC50 (full-length human PHD1): < 100 nM | IC50 (full-length human PHD2): < 100 nM
SMILES: Cc1nn(-c2ccc(-c3ncco3)cn2)c(O)c1-c1ccc(C#N)cc1 [Compound 59, 4-(5-Hydroxy-3-methyl-1-(5-(oxazol-2-yl)pyridin-2-yl)-1H-pyrazol-4-yl)benzonitrile]

IC50 (full-length human PHD1): < 100 nM | IC50 (full-length human PHD2): 100 to 1000 nM
SMILES: Cc1nn(-c2ccc(-c3nccs3)cn2)c(O)c1-c1ccc(C#N)cc1 [Compound 60, 4-(5-Hydroxy-3-methyl-1-(5-(thiazol-2-yl)pyridin-2-yl)-1H-pyrazol-4-yl)benzonitrile]

IC50 (full-length human PHD1): < 100 nM | IC50 (full-length human PHD2): > 10000 nM
SMILES: Cc1nn(-c2ccc(-c3ncc(-c4ccccc4)s3)cn2)c(O)c1-c1ccc(C#N)cc1 [Compound 61, 4-(5-Hydroxy-3-methyl-1-(5-(5-phenylthiazol-2-yl)pyridin-2-yl)-1H-pyrazol-4-yl)benzonitrile]

IC50 (full-length human PHD1): 100 to 1000 nM | IC50 (full-length human PHD2): > 10000 nM
SMILES: Cc1nn(-c2ccc(-c3nc(-c4ccccc4)cs3)cn2)c(O)c1-c1ccc(C#N)cc1 [Compound 62, 4-(5-Hydroxy-3-methyl-1-(5-(4-phenylthiazol-2-yl)pyridin-2-yl)-1H-pyrazol-4-yl)benzonitrile]

IC50 (full-length human PHD1): < 100 nM | IC50 (full-length human PHD2): 100 to 1000 nM
SMILES: Cc1nn(-c2ccc(-n3cccn3)cn2)c(O)c1-c1ccc(C#N)cc1 [Compound 63, 4-(1-(5-(1H-pyrazol-1-yl)pyridin-2-yl)-5-hydroxy-3-methyl-1H-pyrazol-4-yl)benzonitrile]

IC50 (full-length human PHD1): < 100 nM | IC50 (full-length human PHD2): 100 to 1000 nM
SMILES: Cc1nn(-c2ccc(-n3cc(-c4ccccc4)cn3)cn2)c(O)c1-c1ccc(C#N)cc1 [Compound 64, 4-(5-Hydroxy-3-methyl-1-(5-(4-phenyl-1H-pyrazol-1-yl)pyridin-2-yl)-1H-pyrazol-4-yl)benzonitrile]

IC50 (full-length human PHD1): < 100 nM | IC50 (full-length human PHD2): < 100 nM
SMILES: Cc1nn(-c2ccc([S@@](=N)(=O)C3CC3)cn2)c(O)c1-c1ccc(Cl)cc1 [Compound 65, (S)-(6-(4-(4-chlorophenyl)-5-hydroxy-3-methyl-1H-pyrazol-1-yl)pyridin-3-yl)(cyclopropyl)(imino)-λ^6-sulfanone]

IC50 (full-length human PHD1): < 100 nM | IC50 (full-length human PHD2): < 100 nM
SMILES: Cc1nn(-c2ccc([S@](=N)(=O)C3CC3)cn2)c(O)c1-c1ccc(Cl)cc1 [Compound 66, (R)-(6-(4-(4-chlorophenyl)-5-hydroxy-3-methyl-1H-pyrazol-1-yl)pyridin-3-yl)(cyclopropyl)(imino)-λ^6-sulfanone]

IC50 (full-length human PHD1): < 100 nM | IC50 (full-length human PHD2): < 100 nM
SMILES: Cc1nn(-c2ccc(NS(C)(=O)=O)cn2)c(O)c1-c1ccc(Cl)cc1 [Compound 67, N-(6-(4-(4-chlorophenyl)-5-hydroxy-3-methyl-1H-pyrazol-1-yl)pyridin-3-yl)methanesulfonamide]

IC50 (full-length human PHD1): < 100 nM | IC50 (full-length human PHD2): < 100 nM
SMILES: Cc1cc(-n2nc(C)c(-c3ccc(C#N)cc3)c2O)ncc1[S@@](=N)(=O)C1CC1 [Compound 68, (S)-4-(1-(5-(cyclopropanesulfonimidoyl)-4-methylpyridin-2-yl)-5-hydroxy-3-methyl-1H-pyrazol-4-yl)benzonitrile]

IC50 (full-length human PHD1): < 100 nM | IC50 (full-length human PHD2): < 100 nM
SMILES: Cc1cc(-n2nc(C)c(-c3ccc(C#N)cc3)c2O)ncc1[S@](=N)(=O)C1CC1 [Compound 69, (R)-4-(1-(5-(cyclopropanesulfonimidoyl)-4-methylpyridin-2-yl)-5-hydroxy-3-methyl-1H-pyrazol-4-yl)benzonitrile]
